Literature values as cited in patent US20230372318A1, “METHODS FOR TREATING A SUBJECT HAVING MULTIPLE SYSTEM ATROPHY” (Theravance Biopharma R&D IP, LLC, priority 2022, published 2023).
Where two headings read alike, the source gives them in different places.

Experiments:
[1] = system: adult patients with symptomatic nOH; conditions: prescribing information, black box warning; cited from earlier work
[2] = system: patients with central autonomic failure; conditions: cited from earlier work
[3] = system: nOH in MSA patients and non-MSA patients; conditions: cited from earlier work

Structure (SMILES) | Main side effect [1] | Effect on blood pressure [2] | Effect against nOH ([3]; MSA patients) | Effect against nOH ([3]; non-MSA patients)
N[C@H](C(=O)O)[C@H](O)c1ccc(O)c(O)c1 [droxidopa, L-threo-3-4-dihydroxyphenylserine] | supine hypertension |  |  | 
CNCC[C@@H](Oc1ccccc1C)c1ccccc1 [Atomoxetine] |  | increase blood pressure | ineffective | showing improvement
